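Interpolation was linear, between the two tested concentrations surrounding the appropriate level; five concentrations were tested over 48 hours in 96-well plates. GI50 is the concentration that inhibits growth by half. TGI: total growth inhibition.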
Experiments:
Assay in all cases: growth of human tumour cells (NCI), 48 h
RXF 393 renal = test system: RXF 393 renal
M14 melanoma = test system: M14 melanoma
SNB-75 CNS = test system: SNB-75 CNS
CCRF-CEM leukemia = test system: CCRF-CEM leukemia
SW-620 colon = test system: SW-620 colon
UACC-257 melanoma = test system: UACC-257 melanoma
SF-295 CNS = test system: SF-295 CNS
786-0 renal = test system: 786-0 renal
DU-145 prostate = test system: DU-145 prostate
BT-549 breast = test system: BT-549 breast

O=C(c1ccccc1)c1nnc(C(=O)c2ccccc2)nn1
TGI (RXF 393 renal): 261 µM | TGI (M14 melanoma): > 344 µM | TGI (SNB-75 CNS): > 344 µM | TGI (CCRF-CEM leukemia): > 344 µM | TGI (SW-620 colon): > 344 µM | TGI (UACC-257 melanoma): > 344 µM | TGI (SF-295 CNS): > 344 µM | TGI (786-0 renal): > 344 µM

C/C(CC(=O)Nc1cc(Cl)c(Cl)cc1Cl)=N\NC(N)=O
TGI (RXF 393 renal): > 100 µM | TGI (M14 melanoma): > 100 µM | TGI (SNB-75 CNS): > 100 µM | TGI (CCRF-CEM leukemia): > 100 µM | TGI (SW-620 colon): > 100 µM | TGI (UACC-257 melanoma): > 100 µM | TGI (SF-295 CNS): > 100 µM | TGI (786-0 renal): > 100 µM

N#Cc1cc([N+](=O)[O-])ccc1NC(=O)C(=O)Nc1n[nH]c(N)n1
TGI (RXF 393 renal): > 100 µM | TGI (M14 melanoma): > 100 µM | TGI (SNB-75 CNS): > 100 µM | TGI (CCRF-CEM leukemia): > 100 µM | TGI (SW-620 colon): > 100 µM | TGI (UACC-257 melanoma): > 100 µM | TGI (786-0 renal): > 100 µM

CC(C)(CC(=O)Nc1ccccc1)C(=O)O
TGI (M14 melanoma): > 100 µM | TGI (DU-145 prostate): > 100 µM | TGI (CCRF-CEM leukemia): > 100 µM | TGI (SW-620 colon): > 100 µM | TGI (UACC-257 melanoma): > 100 µM | TGI (SF-295 CNS): > 100 µM | TGI (786-0 renal): > 100 µM | TGI (BT-549 breast): > 100 µM

CC(C)(C)C1C=C(Sc2ccccc2)C(=O)O1 (stereo not given)
TGI (M14 melanoma): > 100 µM | TGI (SNB-75 CNS): 83.8 µM | TGI (CCRF-CEM leukemia): > 100 µM | TGI (SW-620 colon): > 100 µM | TGI (UACC-257 melanoma): > 100 µM | TGI (SF-295 CNS): > 100 µM | TGI (786-0 renal): > 100 µM

O=C(/N=N/C(=O)OCc1ccccc1)OCc1ccccc1
TGI (RXF 393 renal): > 100 µM | TGI (M14 melanoma): > 100 µM | TGI (SNB-75 CNS): > 100 µM | TGI (CCRF-CEM leukemia): > 100 µM | TGI (SW-620 colon): > 100 µM | TGI (UACC-257 melanoma): > 100 µM | TGI (SF-295 CNS): > 100 µM | TGI (786-0 renal): > 100 µM

O=C1CCC(=O)N2CCCCN12
TGI (RXF 393 renal): > 100 µM | TGI (M14 melanoma): > 100 µM | TGI (SNB-75 CNS): > 100 µM | TGI (CCRF-CEM leukemia): > 100 µM | TGI (SW-620 colon): > 100 µM | TGI (UACC-257 melanoma): > 100 µM | TGI (SF-295 CNS): > 100 µM | TGI (786-0 renal): > 100 µM

Cc1cc2c(cc1C)[n+](=O)c(C(=O)C/C(=N/NC(=O)CC#N)C(=O)Nc1ccccc1C(F)(F)F)c(C)n2[O-]
TGI (RXF 393 renal): > 100 µM | TGI (M14 melanoma): > 100 µM | TGI (SNB-75 CNS): > 100 µM | TGI (CCRF-CEM leukemia): > 100 µM | TGI (SW-620 colon): > 100 µM | TGI (UACC-257 melanoma): > 100 µM | TGI (SF-295 CNS): > 100 µM | TGI (786-0 renal): > 100 µM

CCc1ccc(/C=C\c2cc(OC)c(OC)c(OC)c2)cc1
TGI (RXF 393 renal): 0.0783 µM | GI50 (M14 melanoma): 0.0168 µM | TGI (M14 melanoma): 19.9 µM | GI50 (SNB-75 CNS): 0.0261 µM | TGI (SNB-75 CNS): > 100 µM | GI50 (CCRF-CEM leukemia): 0.0274 µM | GI50 (UACC-257 melanoma): 0.0802 µM | TGI (UACC-257 melanoma): 72.1 µM | TGI (SF-295 CNS): 0.0171 µM | GI50 (786-0 renal): 0.0353 µM | TGI (786-0 renal): 14 µM

O=C1O[C@@H](c2ccc3c(c2)OCO3)C2C(=O)O[C@@H](c3ccc4c(c3)OCO4)C12 (stereo not given in full)
TGI (RXF 393 renal): > 100 µM | TGI (M14 melanoma): > 100 µM | TGI (SNB-75 CNS): > 100 µM | TGI (CCRF-CEM leukemia): > 100 µM | TGI (SW-620 colon): > 100 µM | TGI (UACC-257 melanoma): > 100 µM | TGI (SF-295 CNS): > 100 µM | TGI (786-0 renal): > 100 µM

C/C(CC(=O)Nc1ccc(C)cc1C)=N/N=C(N)N
TGI (RXF 393 renal): > 100 µM | TGI (M14 melanoma): > 100 µM | TGI (SNB-75 CNS): > 100 µM | TGI (CCRF-CEM leukemia): > 100 µM | TGI (SW-620 colon): > 100 µM | TGI (UACC-257 melanoma): > 100 µM | TGI (SF-295 CNS): > 100 µM | TGI (786-0 renal): > 100 µM

O=C1C2c3[nH]c4ccccc4c3C3CCCCCCC3C2C(=O)N1c1ccccc1 (stereo not given)
TGI (RXF 393 renal): 23.8 µM | TGI (M14 melanoma): 42.5 µM | TGI (SNB-75 CNS): 5.33 µM | TGI (CCRF-CEM leukemia): 25.6 µM | TGI (SW-620 colon): 29.8 µM | TGI (SF-295 CNS): 12.8 µM | TGI (786-0 renal): 26.5 µM

CCC[CH2][Sn]1([CH2]CCC)[O]Cc2nc(C)ccc2[O]1
GI50 (RXF 393 renal): 8.15 µM | TGI (RXF 393 renal): 19.9 µM | GI50 (M14 melanoma): 10.9 µM | TGI (M14 melanoma): 23.5 µM | GI50 (SNB-75 CNS): 4.63 µM | TGI (SNB-75 CNS): 18.8 µM | GI50 (CCRF-CEM leukemia): 1.87 µM | TGI (CCRF-CEM leukemia): 5.01 µM | GI50 (SW-620 colon): 2.81 µM | TGI (SW-620 colon): 12.1 µM | GI50 (UACC-257 melanoma): 5.6 µM | TGI (UACC-257 melanoma): 20.2 µM | GI50 (SF-295 CNS): 2.02 µM | TGI (SF-295 CNS): 3.69 µM | GI50 (786-0 renal): 5.04 µM | TGI (786-0 renal): 16.8 µM

COc1ccc(C2=CC3CCC2C3)cc1 (stereo not given)
TGI (RXF 393 renal): > 100 µM | TGI (M14 melanoma): > 100 µM | TGI (SNB-75 CNS): > 100 µM | TGI (CCRF-CEM leukemia): > 100 µM | TGI (SW-620 colon): > 100 µM | TGI (UACC-257 melanoma): > 100 µM | TGI (SF-295 CNS): > 100 µM | TGI (786-0 renal): > 100 µM

CC1=NN(C(=O)Nc2ccccc2)C(=O)C2CCC(=O)N12 (stereo not given)
TGI (RXF 393 renal): > 100 µM | TGI (M14 melanoma): > 100 µM | TGI (SNB-75 CNS): > 100 µM | TGI (CCRF-CEM leukemia): > 100 µM | TGI (SW-620 colon): > 100 µM | TGI (UACC-257 melanoma): > 100 µM | TGI (SF-295 CNS): > 100 µM | TGI (786-0 renal): > 100 µM

[Cl-].[Dy+3].[O-]/N=C(\c1ccccc1)c1ccccn1.[O-]/N=C(\c1ccccc1)c1ccccn1.[O-]/N=C(\c1ccccc1)c1ccccn1
GI50 (M14 melanoma): 22.1 µM | TGI (M14 melanoma): 43.1 µM | GI50 (SNB-75 CNS): 3.54 µM | TGI (SNB-75 CNS): 22.1 µM | GI50 (CCRF-CEM leukemia): 23.6 µM | TGI (CCRF-CEM leukemia): 97.4 µM | GI50 (SW-620 colon): 41.8 µM | TGI (SW-620 colon): > 100 µM | GI50 (UACC-257 melanoma): 24.5 µM | TGI (UACC-257 melanoma): 67.8 µM | GI50 (SF-295 CNS): 20.9 µM | TGI (SF-295 CNS): 68.8 µM | GI50 (786-0 renal): 32.2 µM | TGI (786-0 renal): 96.6 µM

CC(C)C(=O)NC(=S)Nc1ccc([N+](=O)[O-])cc1C#N
TGI (RXF 393 renal): > 100 µM | TGI (M14 melanoma): > 100 µM | TGI (SNB-75 CNS): > 100 µM | TGI (CCRF-CEM leukemia): > 100 µM | TGI (SW-620 colon): > 100 µM | TGI (UACC-257 melanoma): > 100 µM | TGI (SF-295 CNS): > 100 µM | TGI (786-0 renal): > 100 µM

— PubChem BioAssay (NCI)
